Assay results: ChEMBL document CHEMBL2440076, “New triarylpyrazoles as broad-spectrum anticancer agents: design, synthesis, and biological evaluation” (Eur J Med Chem, 2013)

What was measured:
Type in all cases: functional
[1] = Growth inhibition of human HCC2998 cells assessed as cell growth at 3X10'-5 M after 48 hrs by sulforhodamine B assay; conditions: HCC 2998, 48 h, read-out: Activity
[2] = tested on: HT-29; assay: Growth inhibition of human HT-29 cells assessed as cell growth at 3X10'-8 M after 48 hrs by sulforhodamine B assay; conditions: HT-29, 48 h, read-out: Activity
[3] = tested on: DU-145; assay: Growth inhibition of human DU145 cells assessed as cell growth at 3X10'-8 M after 48 hrs by sulforhodamine B assay; conditions: DU-145, 48 h, read-out: Activity
[4] = tested on: TK-10; assay: Growth inhibition of human TK10 cells assessed as cell growth at 3X10'-6 M after 48 hrs by sulforhodamine B assay; conditions: TK-10, 48 h, read-out: Activity
[5] = tested on: HOP-92; assay: Growth inhibition of human HOP92 cells assessed as cell growth at 3X10'-7 M after 48 hrs by sulforhodamine B assay; conditions: HOP-92, 48 h, read-out: Activity
[6] = tested on: A549; assay: Growth inhibition of human A549/ATCC cells assessed as cell growth at 3X10'-5 M after 48 hrs by sulforhodamine B assay; conditions: A549, 48 h, read-out: Activity
[7] = tested on: A498; assay: Growth inhibition of human A498 cells assessed as cell growth at 3X10'-7 M after 48 hrs by sulforhodamine B assay; conditions: A498, 48 h, read-out: Activity
[8] = tested on: COLO 205; assay: Growth inhibition of human COLO205 cells assessed as cell growth at 3X10'-8 M after 48 hrs by sulforhodamine B assay; conditions: COLO 205, 48 h, read-out: Activity
[9] = tested on: UO-31; assay: Growth inhibition of human UO31 cells assessed as cell growth at 3X10'-7 M after 48 hrs by sulforhodamine B assay; conditions: UO-31, 48 h, read-out: Activity
[10] = tested on: CAKI-1; assay: Growth inhibition of human CAKI-1 cells assessed as cell growth at 3X10'-9 M after 48 hrs by sulforhodamine B assay; conditions: CAKI-1, 48 h, read-out: Activity
[11] = tested on: HCT-116; assay: Growth inhibition of human HCT116 cells assessed as cell growth at 3X10'-9 M after 48 hrs by sulforhodamine B assay; conditions: HCT-116, 48 h, read-out: Activity
[12] = tested on: HCT-15; assay: Growth inhibition of human HCT15 cells assessed as cell growth at 3X10'-5 M after 48 hrs by sulforhodamine B assay; conditions: HCT-15, 48 h, read-out: Activity
[13] = tested on: SK-MEL-28; assay: Growth inhibition of human SK-MEL-28 cells assessed as cell growth at 3X10'-7 M after 48 hrs by sulforhodamine B assay; conditions: SK-MEL-28, 48 h, read-out: Activity
[14] = Growth inhibition of human NCI-ADR-RES cells assessed as cell growth at 3X10'-9 M after 48 hrs by sulforhodamine B assay; conditions: read-out: Activity
[15] = tested on: PC-3; assay: Growth inhibition of human PC3 cells assessed as cell growth at 3X10'-6 M after 48 hrs by sulforhodamine B assay; conditions: PC-3, 48 h, read-out: Activity
[16] = Growth inhibition of human Hs 578T cells assessed as cell growth at 3X10'-6 M after 48 hrs by sulforhodamine B assay; conditions: read-out: Activity
[17] = tested on: SF-268; assay: Growth inhibition of human SF268 cells assessed as cell growth at 3X10'-6 M after 48 hrs by sulforhodamine B assay; conditions: SF-268, 48 h, read-out: Activity
[18] = tested on: Malme-3M; assay: Growth inhibition of human MALME-3M cells assessed as cell growth at 3X10'-7 M after 48 hrs by sulforhodamine B assay; conditions: read-out: Activity
[19] = tested on: SN12C; assay: Growth inhibition of human SN12C cells assessed as cell growth at 3X10'-7 M after 48 hrs by sulforhodamine B assay; conditions: read-out: Activity
[20] = tested on: NCI-H23; assay: Growth inhibition of human NCI-H23 cells assessed as cell growth at 3X10'-5 M after 48 hrs by sulforhodamine B assay; conditions: NCI-H23, 48 h, read-out: Activity
[21] = tested on: HOP-92; assay: Growth inhibition of human HOP92 cells assessed as cell growth at 3X10'-8 M after 48 hrs by sulforhodamine B assay; conditions: HOP-92, 48 h, read-out: Activity
[22] = tested on: HCT-116; assay: Growth inhibition of human HCT116 cells assessed as cell growth at 3X10'-6 M after 48 hrs by sulforhodamine B assay; conditions: HCT-116, 48 h, read-out: Activity
[23] = tested on: NCI-H226; assay: Growth inhibition of human NCI-H226 cells assessed as cell growth at 3X10'-9 M after 48 hrs by sulforhodamine B assay; conditions: NCI-H226, 48 h, read-out: Activity
[24] = tested on: MOLT-4; assay: Growth inhibition of human MOLT4 cells assessed as cell growth at 3X10'-7 M after 48 hrs by sulforhodamine B assay; conditions: MOLT-4, 48 h, read-out: Activity
[25] = tested on: PC-3; assay: Growth inhibition of human PC3 cells assessed as cell growth at 3X10'-5 M after 48 hrs by sulforhodamine B assay; conditions: PC-3, 48 h, read-out: Activity
[26] = tested on: NCI-H322M; assay: Growth inhibition of human NCI-H322M cells assessed as cell growth at 3X10'-7 M after 48 hrs by sulforhodamine B assay; conditions: read-out: Activity
[27] = tested on: SK-MEL-2; assay: Growth inhibition of human SK-MEL-2 cells assessed as cell growth at 3X10'-7 M after 48 hrs by sulforhodamine B assay; conditions: SK-MEL-2, 48 h, read-out: Activity
[28] = tested on: UACC-62; assay: Growth inhibition of human UACC62 cells assessed as cell growth at 3X10'-6 M after 48 hrs by sulforhodamine B assay; conditions: UACC-62, 48 h, read-out: Activity
[29] = tested on: 786-0; assay: Growth inhibition of human 786-0 cells assessed as cell growth at 3X10'-8 M after 48 hrs by sulforhodamine B assay; conditions: 786-0, 48 h, read-out: Activity
[30] = tested on: HCT-116; assay: Growth inhibition of human HCT116 cells assessed as cell growth at 3X10'-7 M after 48 hrs by sulforhodamine B assay; conditions: HCT-116, 48 h, read-out: Activity
[31] = tested on: SF-295; assay: Growth inhibition of human SF295 cells assessed as cell growth at 3X10'-5 M after 48 hrs by sulforhodamine B assay; conditions: SF-295, 48 h, read-out: Activity
[32] = tested on: NCI-H226; assay: Growth inhibition of human NCI-H226 cells assessed as cell growth at 3X10'-5 M after 48 hrs by sulforhodamine B assay; conditions: NCI-H226, 48 h, read-out: Activity
[33] = tested on: T47D; assay: Growth inhibition of human T47D cells assessed as cell growth at 3X10'-9 M after 48 hrs by sulforhodamine B assay; conditions: read-out: Activity
[34] = tested on: SW-620; assay: Growth inhibition of human SW620 cells assessed as cell growth at 3X10'-7 M after 48 hrs by sulforhodamine B assay; conditions: SW-620, 48 h, read-out: Activity
[35] = tested on: MDA-MB-231; assay: Growth inhibition of human MDA-MB-231 cells assessed as cell growth at 3X10'-6 M after 48 hrs by sulforhodamine B assay; conditions: MDA-MB-231, 48 h, read-out: Activity

SMILES | growth at 30 µM [1] | growth at 0.03 µM [2] | growth at 0.03 µM [3] | growth at 3 µM [4] | growth at 0.3 µM [5] | growth at 30 µM [6] | growth at 0.3 µM [7] | growth at 0.03 µM [8] | growth at 0.3 µM [9] | growth at 0.003 µM [10] | growth at 0.003 µM [11] | growth at 30 µM [12] | growth at 0.3 µM [13] | growth at 0.003 µM [14] | growth at 3 µM [15] | growth at 3 µM [16] | growth at 3 µM [17] | growth at 0.3 µM [18] | growth at 0.3 µM [19] | growth at 30 µM [20] | other results
O=C(Nc1cccc(-n2cc(-c3ccncc3)c(-c3ccc(Cl)c(O)c3)n2)c1)Nc1ccc(Cl)c(C(F)(F)F)c1 | -64% | 107% | 105% | 24% | 55% | -29% | 95% | 100% | 82% | 89% | 105% | -2% | 95% | 102% | -15% | 9% | 10% | 77% | 91% | -55% | growth at 0.03 µM [21]: 76%; growth at 3 µM [22]: 4%; growth at 0.003 µM [23]: 88%; growth at 0.3 µM [24]: 83%; growth at 30 µM [25]: -19%; growth at 0.3 µM [26]: 95%; growth at 0.3 µM [27]: 108%; growth at 3 µM [28]: -48%; growth at 0.03 µM [29]: 102%; growth at 0.3 µM [30]: 94%; growth at 30 µM [31]: -41%; growth at 30 µM [32]: 5%; growth at 0.003 µM [33]: 102%; growth at 0.3 µM [34]: 105%; growth at 3 µM [35]: -38%
O=C(Nc1cccc(-n2cc(-c3ccncc3)c(-c3ccc(Cl)c(O)c3)n2)c1)Nc1cccc(C(F)(F)F)c1 | 1% | 99% | 99% | 37% | 65% | 11% | 80% | 99% | 90% | 98% | 96% | 6% | 101% | 99% | 13% | 50% | 37% | 87% | 99% | 6% | growth at 0.03 µM [21]: 77%; growth at 3 µM [22]: 23%; growth at 0.003 µM [23]: 98%; growth at 0.3 µM [24]: 97%; growth at 30 µM [25]: -3%; growth at 0.3 µM [26]: 98%; growth at 0.3 µM [27]: 107%; growth at 3 µM [28]: 33%; growth at 0.03 µM [29]: 96%; growth at 0.3 µM [30]: 98%; growth at 30 µM [31]: -53%; growth at 30 µM [32]: 20%; growth at 0.003 µM [33]: 92%; growth at 0.3 µM [34]: 101%; growth at 3 µM [35]: 52%
